Key:
cdk2/cyclinE = cdk2/cyclinE (Homo sapiens, UniProt P24941); experiment: Cyclin-dependent kinase assay cdk2/cyclinE; format: biochemical; conditions: read-out: cdk2/E IC50
Method: (§1) Cyclin-Dependent Kinase Assays (cdk2/cyclinE, cdk2/cyclinA, cdc2/cyclinB)
(§2) All components except the ATP were added to the wells, and the plate was placed on a plate mixer for 2 minutes. The reaction was begun by addition of [^32P]ATP, and the plate was incubated at 25° C. for 15 minutes. The reaction was terminated by addition of 0.1 mL of 20% TCA. The plate was kept at 4° C. for at least 1 hour to allow the substrate to precipitate. The wells were then washed five times with 0.2 mL of 10% TCA and ^32P incorporation determined with a beta plate counter (Wallac Inc., Gaithersburg, Md.).

cdk2/cyclinA = cdk2/cyclinA (Homo sapiens, UniProt P24941); experiment: Cyclin-dependent kinase assay cdk2/cyclinA; format: biochemical
Method: as §1, §2

[1] = target: T1, FGF-1 (flg) receptor tyrosine kinase (Homo sapiens, UniProt P11362); experiment: FGF receptor tyrosine kinase assay; format: biochemical; conditions: intracellular tyrosine kinase domain, SF9 lysate
T1 construct: amplify a fragment of DNA that codes for the intracellular tyrosine kinase domain; made in house; host or cells: SF9 insect cells (baculovirus)
Method: The assays used to determine these activities were carried out as follows:
PDGF and FGF Receptor Tyrosine Kinase Assays
PCR primers were designed to amplify a fragment of DNA that codes for the intracellular tyrosine kinase domain. The fragment was inserted into a baculovirus vector, cotransfected with AcMNPV DNA, and the recombinant virus isolated. SF9 insect cells were infected with the virus to overexpress the protein, and the cell lysate was used for the assay. Assays were performed in 96-well plates (100 μL/incubation/well), and conditions were optimized to measure the incorporation of ^32P from γ^32P-ATP into a glutamate-tyrosine co-polymer substrate. Briefly, to each well was added 82.5 μL of incubation buffer containing 25 mM Hepes (pH 7.0), 150 mM NaCl, 0.1% Triton X-100, 0.2 mM PMSF, 0.2 mM Na3VO4, 10 mM MnCl2, and 750 μg/mL of Poly (4:1) glutamate-tyrosine followed by 2.5 μL of inhibitor and 5 μL of enzyme lysate (7.5 μg/μL FGF-TK or 6.0 μg/μL PDGF-TK) to initiate the reaction. Following a 10 minute incubation at 25° C., […] of γ^32P-ATP (0.4 μCi plus 50 μM ATP) was added to each well, and samples were incubated for an additional 10 minutes at 25° C. […] Nonspecific activity was defined as radioactivity retained on the filters following incubation of samples with buffer alone (no enzyme). […]

cdc2/cyclinB = cdc2/cyclinB (Homo sapiens, UniProt P06493); experiment: Cyclin-dependent kinase assay cdc2/cyclinB (cdk1/B); format: biochemical
Method: as §1, §2

cdk4/D = cdk4/D (Homo sapiens, UniProt P11802); experiment: Cyclin-Dependent Kinase 4 (cdk4) enzyme assay, 32P incorporation; format: biochemical; conditions: 25 μM ATP, retinoblastoma substrate
Method: A typical assay, for instance, measures inhibitory activity against the cyclin D dependent kinase 4 enzyme (cdk4/D). […] The cdk4 assay was carried out as follows.
Cyclin-Dependent Kinase 4 (cdk4) Assay
Enzyme assays for IC50 determinations (Tables 1 and 2) and kinetic evaluation were performed in 96 well filter plates (Millipore MADVN6550). The total volume was 0.1 mL containing a final concentration of 20 mM TRIS (tris[hydroxymethyl]aminomethane), at pH 7.4, 50 mM NaCl, 1 mM dithiothreitol, 10 mM MgCl2, 25 μM ATP containing 0.25 μCi of [^32P]ATP, 20 ng of cdk4, 1 μg of retinoblastoma, and appropriate dilutions of a compound of the present invention. All components except the ATP were added to the wells, and the plate was placed on a plate mixer for 2 minutes. The reaction was started by adding [^32P]ATP and the plate was incubated at 25° C. for 15 minutes. The reaction was terminated by addition of 0.1 mL of 20% trichloroacetic acid (TCA). The plate was kept at 4° C. for at least 1 hour to allow the substrate to precipitate. The wells were then washed five times with 0.2 mL of 10% TCA and ^32p incorporation was determined with a beta plate counter (Wallac Inc., Gaithersburg. MD).

c-Src = target: T2, c-Src (Homo sapiens, UniProt P12931); experiment: c-Src kinase assay; format: biochemical; conditions: 5 μM ATP, poly GluTyr substrate
T2 construct: made in house; host or cells: baculovirus infected insect cells
Method: Several of the invention compounds have been evaluated in a standard assay to measure their ability to inhibit cellular Src protein kinase (c-Src). […] The assay was carried out as follows:
c-Src kinase was purified from baculovirus infected insect cell lysates using an antipeptide monoclonal antibody directed against the N-terminal amino acids (amino acids 2-17) of c-Src. The antibody, covalently linked to 0.65 μm latex beads, was added to a suspension of insect cell lysis buffer comprised of 150 mM NaCl, 50 mM Tris pH 7.5, 1 mM DTT, 1% NP-40, 2 mM EGTA, 1 mM sodium vanadate, 1 mM PMSF, 1 μg/mL each of leupeptin, pepstatin, and aprotinin. Insect cell lysate containing c-Src protein was incubated with these beads for 3 to 4 hours at 4° C. with rotation. At the end of the lysate incubation, the beads were rinsed three times in lysis buffer, resuspended in lysis buffer containing 10% glycerol, and frozen. These latex beads were thawed, rinsed three times in assay buffer (40 mM Tris, pH 7.5, 5 mM […]) and suspended in the same buffer. In a Millipore 96-well plate with a 0.65 μm polyvinylidine membrane bottom were added the reaction components: 10 μL c-Src beads, 10 μL of 2.5 mg/mL poly GluTyr substrate, 5 μM ATP containing 0.2 μCi labeled ^32P-ATP, 5 μL DMSO containing inhibitors or as a solvent control, and buffer to make the final volume 125 μL. The reaction was started at room temperature by addition of the ATP and quenched 10 minutes later by the addition of 125 μL of 30% TCA, 0.1 M sodium pyrophosphate for 5 minutes on ice. The plate was then filtered and the wells washed with two […] aliquots of 15% TCA, 0.1 M pyrophosphate. The filters were then punched, counted in a liquid scintillation counter, and the data examined for inhibitory activity in comparison to a known inhibitor such as erbstatin. The method is also described in J. Med. Chem., 1994; 37:598-609. Tables 5 and 6 list c-Src inhibitory concentrations (IC50) for representative invention compounds.

Chain of cdk4/D (P11802 whole entry, species assumed): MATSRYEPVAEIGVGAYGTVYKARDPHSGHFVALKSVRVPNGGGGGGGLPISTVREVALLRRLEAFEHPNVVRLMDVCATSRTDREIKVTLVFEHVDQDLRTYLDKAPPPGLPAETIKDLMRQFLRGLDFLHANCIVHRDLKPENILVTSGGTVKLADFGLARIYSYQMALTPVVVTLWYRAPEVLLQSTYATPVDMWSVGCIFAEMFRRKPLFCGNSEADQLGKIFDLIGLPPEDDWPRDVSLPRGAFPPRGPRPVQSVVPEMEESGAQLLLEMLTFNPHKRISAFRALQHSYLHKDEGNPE
Chain of cdk4/D (P24385 whole entry partner, species assumed): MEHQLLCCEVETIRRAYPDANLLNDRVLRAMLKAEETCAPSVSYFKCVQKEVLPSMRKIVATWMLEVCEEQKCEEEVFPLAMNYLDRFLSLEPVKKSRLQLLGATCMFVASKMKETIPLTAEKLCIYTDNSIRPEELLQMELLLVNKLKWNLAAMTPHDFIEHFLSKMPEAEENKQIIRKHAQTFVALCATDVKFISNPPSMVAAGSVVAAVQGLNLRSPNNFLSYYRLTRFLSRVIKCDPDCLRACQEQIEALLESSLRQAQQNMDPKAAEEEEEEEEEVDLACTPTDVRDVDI
T1 sequence (P11362 478-767 limits assumed): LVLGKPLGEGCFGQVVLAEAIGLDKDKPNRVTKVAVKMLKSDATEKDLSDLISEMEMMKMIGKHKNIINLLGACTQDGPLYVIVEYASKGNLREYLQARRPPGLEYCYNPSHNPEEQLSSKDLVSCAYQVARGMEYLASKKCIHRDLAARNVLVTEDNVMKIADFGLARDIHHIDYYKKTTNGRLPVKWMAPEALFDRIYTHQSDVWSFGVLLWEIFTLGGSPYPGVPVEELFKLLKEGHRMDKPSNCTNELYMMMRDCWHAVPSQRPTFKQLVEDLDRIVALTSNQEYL
Chain of cdc2/cyclinB (P06493 whole entry, species assumed): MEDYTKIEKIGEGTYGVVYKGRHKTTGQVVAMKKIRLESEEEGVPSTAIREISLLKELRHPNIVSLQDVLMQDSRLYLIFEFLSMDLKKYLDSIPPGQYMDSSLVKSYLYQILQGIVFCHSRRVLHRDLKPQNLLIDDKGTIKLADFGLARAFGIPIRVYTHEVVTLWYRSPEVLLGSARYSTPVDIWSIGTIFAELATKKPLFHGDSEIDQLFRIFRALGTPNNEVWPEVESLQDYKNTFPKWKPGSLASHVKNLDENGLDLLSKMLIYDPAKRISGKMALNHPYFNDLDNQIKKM
Chain of cdc2/cyclinB (P14635 whole entry partner, species assumed): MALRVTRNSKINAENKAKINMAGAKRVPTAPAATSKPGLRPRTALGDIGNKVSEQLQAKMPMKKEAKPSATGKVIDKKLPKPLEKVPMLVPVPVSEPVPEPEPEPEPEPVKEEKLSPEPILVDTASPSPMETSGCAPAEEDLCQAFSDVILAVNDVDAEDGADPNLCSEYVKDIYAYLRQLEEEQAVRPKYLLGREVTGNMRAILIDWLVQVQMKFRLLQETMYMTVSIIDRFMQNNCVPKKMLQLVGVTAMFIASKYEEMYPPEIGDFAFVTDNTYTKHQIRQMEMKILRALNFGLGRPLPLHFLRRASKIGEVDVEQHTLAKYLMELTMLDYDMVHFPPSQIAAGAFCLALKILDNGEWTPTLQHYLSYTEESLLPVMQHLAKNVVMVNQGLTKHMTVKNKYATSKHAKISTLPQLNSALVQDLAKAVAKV
T2 sequence (P12931 whole entry, species assumed): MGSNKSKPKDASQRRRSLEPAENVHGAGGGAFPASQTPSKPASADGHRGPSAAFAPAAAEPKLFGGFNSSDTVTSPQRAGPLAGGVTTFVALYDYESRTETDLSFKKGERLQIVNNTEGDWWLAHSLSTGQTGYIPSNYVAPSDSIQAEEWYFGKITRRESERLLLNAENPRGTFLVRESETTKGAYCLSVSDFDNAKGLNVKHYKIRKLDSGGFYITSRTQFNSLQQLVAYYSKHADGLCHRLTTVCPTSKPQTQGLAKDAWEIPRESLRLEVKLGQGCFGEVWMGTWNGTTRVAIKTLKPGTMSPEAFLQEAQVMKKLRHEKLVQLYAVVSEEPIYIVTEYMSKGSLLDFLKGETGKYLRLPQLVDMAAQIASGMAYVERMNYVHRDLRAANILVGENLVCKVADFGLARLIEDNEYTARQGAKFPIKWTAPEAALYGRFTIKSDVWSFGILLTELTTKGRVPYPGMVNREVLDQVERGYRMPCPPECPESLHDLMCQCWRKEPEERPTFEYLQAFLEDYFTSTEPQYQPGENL

Row | Structure (SMILES) | IC50 (cdk2/cyclinE) [µM] | IC50 (cdk2/cyclinA) [µM] | IC50 [1] [nM] | IC50 (cdc2/cyclinB) [µM] | IC50 (cdk4/D) [nM] | melting point | IC50 (c-Src) [nM]
1 | CC(C)n1c(=O)ncc2cnc(Nc3ccc(N4CCC(CCCN5CCOCC5)CC4)cc3)nc21 [Example 43, 1-Isopropyl-7-{4-[4-(3-(morpholin-4-yl)propyl)piperidin-1-yl]phenylamino}-pyrimido[4,5-d]pyrimidin-2(1H)-one] | 38 | 7.49 | 4930 | > 40 | 540 |  | 
2 | CN1CCN(c2ccc(Nc3ncc4cnc(=O)n(C5CC6CCC5C6)c4n3)cc2)CC1 (stereo not drawn) [Example 44, 1-Bicyclo [2.2.1]hept-2-yl-7-[4-(4-methylpiperazin-1-yl)phenylamino]-pyrimido[4,5-d]pyrimidin-2(1H)-one, exo] | 1.2 | 1.03 | 470 | 7.36 | 18 | > 210 °C (dec.) | 2300

Reference: patent US7501425B1, “Bicyclic pyrimidines and bicyclic 3,4-dihydropyprimidines as inhibitors of cellular proliferation” (Warner Lambert Company, priority 1999, dated 2009)
